Measured values: paper PMC5884943, “Discovery of Novel Inhibitors of Indoleamine 2,3-Dioxygenase 1 Through Structure-Based Virtual Screening” (Frontiers in Pharmacology, 2018)
Read-outs that look alike come from different tables or passages of the source.

Legend:
[1] = system: IDO1; conditions: Figure 1, published IDO1 inhibitors, cited from earlier work
[2] = biological target: T1, IDO1 in HeLa cells (Homo sapiens, UniProt P14902); experiment: HeLa cellular IDO1 assay (kynurenine OD 480 nm after IFN-γ); type: cell-based; conditions: IDO1 inhibition in HeLa cells, 48 h
T1 construct: endogenous in cells; host or cells: HeLa (ATCC CCL-2), stimulated with recombinant human IFN-γ
T1 sequence (P14902 whole entry): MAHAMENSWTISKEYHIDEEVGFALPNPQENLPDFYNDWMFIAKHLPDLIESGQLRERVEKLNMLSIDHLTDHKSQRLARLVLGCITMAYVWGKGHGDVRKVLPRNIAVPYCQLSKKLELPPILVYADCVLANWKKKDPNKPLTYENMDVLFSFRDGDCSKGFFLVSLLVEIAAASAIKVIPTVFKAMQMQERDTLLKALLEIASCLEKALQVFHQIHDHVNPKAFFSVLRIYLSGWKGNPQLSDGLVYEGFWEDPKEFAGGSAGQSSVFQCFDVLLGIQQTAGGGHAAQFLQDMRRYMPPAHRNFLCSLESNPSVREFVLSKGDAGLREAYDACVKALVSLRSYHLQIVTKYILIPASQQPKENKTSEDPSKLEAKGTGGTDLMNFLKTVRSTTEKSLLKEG
Protocol: We chose HeLa cell line (ATCC, Cat. No. CCL-2, 4965442) to detect whether our compounds could inhibit IDO activity at cellular level by optical density (OD) assay. The assay was performed in 96-well flat bottom plate (CORNING, Cat. No. 3903) seeded with 5,000 cells in a final volume of 100 μL. Each well 80 μL HeLa cells were incubated overnight at 37°C in EMEM (Invitrogen, Cat. No. 11095098) supplemented with 10% FBS (Invitrogen, Cat. No. 10099-141, Lot. No. 8153379). Then compounds that have been serial diluted were added in corresponding well and 10 μL Recombinant Human IFN-γF (Peprotech, Cat. No. 300-02) was added in each well except wells for Min (Medium containing 0.5% DMSO with cells). The mixture of cells were incubated at 37°C, 5% CO2 for 48 h. Then transferred 90 μL of supernatant to 96-well plate (CORNING, Cat. No. 3599) and store at −20°C fridge for colormetric analysis. The next day, 10 μL of 6.1 N trichloroacetic acid (Sigma, Cat. No. T0699) were added in each well after transferred 80 μL supernatant to 96-well plate (CORNING, Cat. No. 3894). Then the mixture was incubated at 50°C for 30 min. Sediments were removed by centrifuged for 10 min at 2,500 rpm. Seventy microliters of 70 μL of 2% (w/v) p-dimethylaminobenzaldehyde (Sigma-Aldrich, Cat. No. 15647-7) was added after 70 μL of the supernatant were transferred to assay plate (CORNING, Cat. No. 3635). Finally, OD-value was measured at 480 nm using an EnSpire (PE).

[3] = biological target: T2, human IDO1 protein (Homo sapiens, UniProt P14902); experiment: Enzymatic IDO1 assay (Absorbance 321 assay); type: biochemical; conditions: for inhibition at 20 µM: 20 μM compound, read-out: Inhibition ratio (%) @ 20 μM; for Avg_Inh (%) @ 50uM: average inhibition, Table S2; for IC50: IDO1 enzymatic level; for Background (%): background signal of the compound in the absorbance assay
T2 construct: purchased ChemPartner Lot; No. 20160706
T2 sequence (P14902 whole entry): as above
Protocol: The standard assay mixture contained modified potassium phosphate buffer at pH 6.5, 100 μM L-tryptophan (Sigma, Cat. […] No. […]). […] Then the assay plate was read at OD321 kinetically in Spectramax. […] Fit the data in […]5.0 software to obtain IC50-values using Equation (2): (2) Y=Bottom+Top-Bottom/1+10^(logIC50-X)×HillSlope where Y stands for inhibition percentage and X stands for compound concentration. All determinations were carried out in duplicate.

Row | Compound | Avg_Inh (%) @ 50uM [3] [%] | Background (%) [3] [%] | also measured
1 | Cc1ccc(-c2csc3nnc(SCC(=O)Nc4ccc5c(c4)OCO5)n23)cc1 [Amg-1] | – | – | IC50 ([1]; ref Meininger et al., 2011): 36 µM
2 | Clc1ccc(N2COc3ccc4ccccc4c3C2)cc1 [DC-I028] | 82.33 | 55.25 | IC50 [2]: 89.1 µM; inhibition at 20 µM [3]: 58%; Inhibition ratio (%) @ 50 μM ([3]; 50 μM compound): 82%; IC50 [3]: 21.6 µM
3 | Cc1ccc(Cl)cc1N1COc2ccc3ccccc3c2C1 [DC-I02802] | – | – | IC50 [2]: 56 µM; inhibition at 20 µM [3]: 42.2%; IC50 [3]: 44.2 µM
4 | Cc1ccc([N+](=O)[O-])cc1N1COc2ccc3ccccc3c2C1 [DC-I02804] | – | – | IC50 [2]: 98.4 µM; inhibition at 20 µM [3]: 39.1%; IC50 [3]: 27.8 µM
5 | COc1ccc(C(=O)NC(=S)Nc2c(O)ccc3ccccc23)cc1Br [DC-I02805] | – | – | Hela / Cellular IC50 [2]: No activity; inhibition at 20 µM [3]: 54.7%; IC50 [3]: 13.7 µM
6 | CCOc1cc(C(=O)NC(=S)Nc2c(O)ccc3ccccc23)cc(OCC)c1OCC [DC-I02806] | – | – | IC50 [2]: 18.2 µM; inhibition at 20 µM [3]: 75.3%; IC50 [3]: 18.7 µM
7 | O=C(NC(=S)Nc1c(O)ccc2ccccc12)c1ccccc1Br [DC-I02808] | – | – | IC50 [2]: 46.4 µM; inhibition at 20 µM [3]: 61.3%; IC50 [3]: 17.9 µM
8 | O=c1[nH]c(CN2CCOCC2)nc2ccccc12 [DCI-081] | -6.95 | 38.30 | –
9 | CCC(C(=O)Nc1cccc(C(C)O)c1)c1ccccc1 (centres unmarked) [DCI-082] | -2.26 | 35.32 | –
10 | Cc1ccc([N+](=O)[O-])cc1NC(=O)COc1ccc2ccccc2c1Br [DCI-083] | 40.17 | 40.73 | –
11 | COc1ccc2ccccc2c1/C=N/NC(N)=S [DCI-084] | 35.60 | 64.61 | –
12 | CC(=O)Nc1ccc(NC(=O)COc2ccc(Br)cc2C)cc1 [DCI-085] | -4.72 | 37.26 | –
13 | O=C(COc1ccc2ccccc2c1)Nc1cccc(Cl)c1 [DCI-086] | 77.96 | 50.53 | –
14 | Cc1cc(C)c(S(=O)(=O)N2CCC(C(N)=O)CC2)cc1C [DCI-087] | -2.50 | 34.87 | –
15 | COc1cc(C(=O)Nc2ccc(S(N)(=O)=O)cc2)cc(OC)c1OC [DCI-088] | -0.32 | 43.06 | –
16 | COc1ccc2ccccc2c1CNC(C)c1ccccc1 (centres unmarked) [DCI-091] | -6.47 | 41.00 | –
17 | COc1ccc2ccccc2c1CNc1ncn[nH]1 [DCI-092] | 1.56 | 40.57 | –
18 | O=C(c1ccc(OCCc2ccccc2)cc1)N1CCCC1 [DCI-093] | 2.13 | 35.52 | –
19 | Cc1cc(=O)oc2cc(OCC(O)Cn3c(C)nc4ccccc43)ccc12 (centres unmarked) [DCI-094] | -10.06 | 75.33 | –
20 | O=C(Cc1coc2ccc3ccccc3c12)N1CCCC1 [DCI-095] | -1.55 | 43.56 | –
21 | Cc1ccc(C)c(NS(=O)(=O)c2ccc3ccccc3c2)c1 [DCI-096] | 58.68 | 49.37 | –
22 | COc1ccc2nc(C(C)O)[nH]c2c1 (centres unmarked) [DCI-097] | -2.09 | 37.58 | –
23 | COc1ccc(C2C(C#N)=C(N)Oc3n[nH]c(-c4ccc(Cl)cc4)c32)cc1O (centres unmarked) [DCI-098] | 4.10 | 35.87 | –
24 | Cc1cc2ccccc2n2c(SCC(=O)Nc3ccc(S(N)(=O)=O)cc3)nnc12 [DCI-099] | 27.63 | 49.90 | –
25 | O=S(=O)(c1ccc(N=Cc2c(O)ccc3ccccc23)cc1)N1CCCCC1 [DCI-100] | 94.68 | 57.16 | –
26 | c1ccc(CNCC2OCCc3ccccc32)cc1 (centres unmarked) [DCI-101] | -0.96 | 35.16 | –
27 | CCn1c(SCc2nc3ccccc3[nH]2)nc2cc(C(=O)OC)ccc2c1=O [DCI-103] | 43.77 | 52.04 | –
28 | O=C(NCCc1cccc(Cl)c1)c1cccc2ccccc12 [DCI-104] | 25.72 | 41.51 | –
